How the values were obtained:
[1] = molecular target: T1, mitochondrial calcium uniporter (MCU) (Homo sapiens, UniProt Q8NE86); test: mCa2+ uptake inhibition in digitonin-permeabilized HEK293T cells; format: cell-based
T1 sequence (Q8NE86 51-351): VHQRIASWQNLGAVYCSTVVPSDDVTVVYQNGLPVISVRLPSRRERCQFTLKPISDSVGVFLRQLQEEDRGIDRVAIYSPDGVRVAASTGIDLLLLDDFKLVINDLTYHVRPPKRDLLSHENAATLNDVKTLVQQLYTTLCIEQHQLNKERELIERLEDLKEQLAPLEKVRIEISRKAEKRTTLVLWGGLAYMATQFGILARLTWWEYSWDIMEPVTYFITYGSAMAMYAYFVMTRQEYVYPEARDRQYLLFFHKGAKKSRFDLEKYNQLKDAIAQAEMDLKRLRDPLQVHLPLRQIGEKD

[2] = molecular target: T1, mitochondrial calcium uniporter (MCU); test: mCa2+ uptake inhibition in digitonin-permeabilized HEK293T cells (Calcium Green 5N); format: cell-based

IC50 [1]: 90.9 ± 1.3 nM
IC50 [2]: 5.7 ± 0.3 nM
Substance: Os245

From paper PMC11301636, “Supramolecular delivery of dinuclear ruthenium and osmium MCU inhibitors” (Inorganic Chemistry Frontiers, 2024)
